# Source: patent publication US10358453B2, “Antiviral compounds” (priority 2015, dated 2019)
# What was measured:
# [1] = Cytotoxicity determination (CCK-8, without addition of virus); format: cell-based; settings: human, HEp-2 cells (uninfected), no virus, Table C = greater than 100 μM, Table D = equal to or less than 100 μM and greater than 10 μM
# Experimental: CPE reduction assays are performed as described by Sidwell and Huffman et al., Appl. Microbiol. (1971) 22(5):797-801 with slight modifications. HEp-2 cells (ATCC#, CCL-23) are seeded at a density of 1,500 cells/30 μL/well into the 384-well cell plate(s) (Corning#3701) one day prior to the assay. Compounds are added into 384-well cell plates by Labcyte POD 810 Plate Assembler system. Each of the test compounds is provided to duplicate wells of a 384-well cell plate at final concentrations starting from 100 μM or 1 μM using 1/3 stepwise dilutions for 9 points. Quick-thaw Respiratory Syncytial Virus (RSV) long strain (ATCC#VR-26) stock in a 37° C. water bath. Place on ice until ready to use. Viruses are diluted to the concentration of 100 TCID50/30 μL with medium and 30 μl diluted RSV are added into related wells of 384-well cell plates. For each plate, sixteen wells are set aside as uninfected, untreated cell controls (CC), and nine wells per test plate receive virus only as a control for virus replication (VC). The final DMSO concentration of all wells is 1%. Place the plates at 37° C., 5% CO2 for 5 days.
# In order to determine the compound cytotoxicity, in parallel, each of the compounds is applied to duplicate wells in a 384-well cell plate at serial final concentrations starting from 100 μM using ½ stepwise dilutions for 7 points without addition of virus. Incubate the cells at 37° C., 5% CO2 for 5 days. Add 6 μL CCK-8 into each well and incubate in a CO2 incubator at 37° C. for 3-4 h. Read the plates to obtain the optical densities which are used to calculate 50% cytotoxicity concentration (CC50).
# [2] = system: RSV subgenomic replicon 395 HeLa and APC126; test: RSV subgenomic replicon assay (Renilla luciferase); format: cell-based; settings: human respiratory syncytial virus; RSV replicon cells (395 HeLa 7 days or APC126 3 days); Table G = less than 1 μM, Table H = equal to or higher than 1 μM and less than 50 μM
# Description: The RSV subgenomic replicon 395 HeLa and APC126 were licensed from Apath (Brooklyn, N.Y.) and were originally developed by Dr. Mark Meeples of Center for Vaccines & Immunity, the Research Institute at Nationwide Children's Hospital in Columbus, Ohio. To generate subgenomic RSV replicon, three glycoprotein genes, those for SH, G, and F, from a full-length recombinant GFP-expressing (rg) RSV antigenomic cDNA were deleted. In their place, a blasticidin S deaminase (bsd) gene was inserted. Through multiple steps, the RSV replicon was established in HeLa cells (395 Hela) or BHK cells (APC126). Both 395 HeLa and APC126 cells were cultured in Dulbecco's Modified Eagle Medium (DMEM) containing 4500 mg/L D-glucose, L-glutamine, and 110 mg/L sodium pyruvate (Invitrogen, Cat. #11995-040). The medium was further supplemented with 10% (v/v) fetal bovine serum (FBS) (Mediatech, Cat. #35-010-CV), 1% (v/v) penicillin/streptomycin (Mediatech, Cat. #30-002-CI), and 10 μg/mL of Blasticidin (BSD) (Invivogen, Cat. code ant-bl-1). Cells were maintained at 37° C. in a humidified 5% CO2 atmosphere.
# Determination of 50% inhibitory concentration (EC50), 90% inhibitory concentration (EC90) and 50% cytotoxic concentration (CC50) in RSV replicon cells were performed by the following procedure. On the first day, 5000 RSV replicon cells per well were plated in a 96-well plate. On the following day, compounds to be tested were solubilized in 100% DMSO to 100X the desired final testing concentration. Each compound was serially diluted (1:3) up to 9 distinct concentrations. Compounds in 100% DMSO were reduced to 10% (v/v) DMSO by diluting 1:10 in cell culture media. A 10 μL sample of the compounds diluted to 10% (v/v) DMSO with cell culture media was used to treat the RSV replicon cells in 96-well format. The final DMSO concentration was 1% (v/v). Cells were incubated with compounds for 7 days (for 395Hela) or 3 days (for APC126) at 37° C. in a 5% CO2 atmosphere. In each assay, positive control that was previously characterized in the RSV replicon assay was included.
# The Renilla Luciferase Assay System (Promega, Cat. #E2820) was used to measure anti-RSV replicon activity. Assay plates were set up as stated above. Luminescence was recorded using a Perkin Elmer multilabel counter Victor3V. EC50, the concentration of the drug required for reducing RSV replicon RNA by 50% in relation to the untreated cell control value, was calculated from the plot of percentage reductions of the […] against the drug concentrations using the Microsoft Excel forecast function.
# recombinant RSV complex = recombinant RSV complex (Human respiratory syncytial virus A, UniProt P28887); test: RSV polymerase inhibition assay; format: biochemical; settings: 10 nM recombinant RSV complex, 2 h at 30° C.; Table E = <1 μM, Table F = <50 μM; read-out: IC50
# Sequence of recombinant RSV complex (P28887 whole entry): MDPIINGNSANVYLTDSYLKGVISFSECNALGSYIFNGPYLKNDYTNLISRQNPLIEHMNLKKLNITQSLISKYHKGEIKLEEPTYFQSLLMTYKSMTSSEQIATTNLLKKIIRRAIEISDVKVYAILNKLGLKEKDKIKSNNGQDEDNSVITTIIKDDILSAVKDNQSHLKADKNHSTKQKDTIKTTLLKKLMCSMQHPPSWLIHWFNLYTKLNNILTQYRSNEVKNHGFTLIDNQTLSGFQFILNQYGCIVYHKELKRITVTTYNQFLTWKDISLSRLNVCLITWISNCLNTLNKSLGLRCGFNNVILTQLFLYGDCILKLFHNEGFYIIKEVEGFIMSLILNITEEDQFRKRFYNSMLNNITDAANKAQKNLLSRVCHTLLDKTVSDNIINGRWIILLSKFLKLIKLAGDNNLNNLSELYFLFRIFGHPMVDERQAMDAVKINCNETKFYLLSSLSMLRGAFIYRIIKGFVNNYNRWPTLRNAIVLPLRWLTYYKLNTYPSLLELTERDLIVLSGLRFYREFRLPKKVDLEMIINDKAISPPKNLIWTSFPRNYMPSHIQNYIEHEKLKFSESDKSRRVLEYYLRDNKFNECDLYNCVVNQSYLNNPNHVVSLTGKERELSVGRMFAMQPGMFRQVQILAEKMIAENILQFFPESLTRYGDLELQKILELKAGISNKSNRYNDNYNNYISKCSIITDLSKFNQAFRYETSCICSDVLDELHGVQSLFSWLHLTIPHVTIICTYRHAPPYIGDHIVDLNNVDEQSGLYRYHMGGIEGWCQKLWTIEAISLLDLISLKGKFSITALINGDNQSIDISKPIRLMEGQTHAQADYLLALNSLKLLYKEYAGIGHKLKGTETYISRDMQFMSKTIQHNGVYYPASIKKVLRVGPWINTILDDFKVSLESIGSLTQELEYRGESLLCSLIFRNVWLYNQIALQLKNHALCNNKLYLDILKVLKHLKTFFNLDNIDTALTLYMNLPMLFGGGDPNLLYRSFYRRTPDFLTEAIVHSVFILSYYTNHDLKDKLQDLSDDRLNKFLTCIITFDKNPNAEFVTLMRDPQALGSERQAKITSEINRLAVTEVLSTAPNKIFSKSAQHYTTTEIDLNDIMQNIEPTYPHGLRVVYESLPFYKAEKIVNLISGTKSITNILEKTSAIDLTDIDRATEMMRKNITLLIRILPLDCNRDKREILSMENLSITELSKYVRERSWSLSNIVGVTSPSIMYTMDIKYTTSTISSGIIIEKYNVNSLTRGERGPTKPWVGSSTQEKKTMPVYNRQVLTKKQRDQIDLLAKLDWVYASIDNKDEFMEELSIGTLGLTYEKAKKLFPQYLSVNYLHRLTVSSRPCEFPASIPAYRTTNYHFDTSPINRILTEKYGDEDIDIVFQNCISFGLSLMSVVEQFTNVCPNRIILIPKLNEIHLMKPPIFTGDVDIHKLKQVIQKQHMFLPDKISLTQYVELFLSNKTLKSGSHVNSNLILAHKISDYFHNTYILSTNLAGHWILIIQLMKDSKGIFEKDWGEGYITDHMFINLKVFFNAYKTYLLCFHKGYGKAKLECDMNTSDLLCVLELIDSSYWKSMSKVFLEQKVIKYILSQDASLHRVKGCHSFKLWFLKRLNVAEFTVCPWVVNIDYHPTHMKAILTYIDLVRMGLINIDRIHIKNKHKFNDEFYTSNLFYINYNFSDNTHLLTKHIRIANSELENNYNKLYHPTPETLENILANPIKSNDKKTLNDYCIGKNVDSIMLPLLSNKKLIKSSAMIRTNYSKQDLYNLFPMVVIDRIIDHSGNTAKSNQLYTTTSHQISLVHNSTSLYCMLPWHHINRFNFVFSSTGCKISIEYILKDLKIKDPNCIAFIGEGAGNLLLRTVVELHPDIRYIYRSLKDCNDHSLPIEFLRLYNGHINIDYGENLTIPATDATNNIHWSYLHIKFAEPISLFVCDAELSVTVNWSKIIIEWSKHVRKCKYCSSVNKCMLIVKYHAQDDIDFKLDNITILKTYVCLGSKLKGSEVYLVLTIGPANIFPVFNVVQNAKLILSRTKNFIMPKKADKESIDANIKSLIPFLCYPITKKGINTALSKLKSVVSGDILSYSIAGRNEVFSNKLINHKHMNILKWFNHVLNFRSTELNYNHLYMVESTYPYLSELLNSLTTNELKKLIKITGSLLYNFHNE
# Sequence of recombinant RSV complex (P03421 whole entry, further chain): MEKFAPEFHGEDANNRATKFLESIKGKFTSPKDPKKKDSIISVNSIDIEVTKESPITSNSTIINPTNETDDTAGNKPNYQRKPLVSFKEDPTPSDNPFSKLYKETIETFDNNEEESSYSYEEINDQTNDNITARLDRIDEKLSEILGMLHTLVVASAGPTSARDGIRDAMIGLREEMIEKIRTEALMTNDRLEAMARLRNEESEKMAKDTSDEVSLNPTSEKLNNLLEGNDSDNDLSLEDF
# Experimental: Standard RSV polymerase assays were conducted in the presence of 10 nM recombinant RSV complex in a reaction buffer containing Tris-HCl pH7.5, 6 mM MgCl2, and other additives and substrates including RNA oligonucleotides and radionucleotides. Standard reactions were incubated in 96-well plate format for 2 h at 30° C., in the presence of increasing concentration of inhibitor. The reaction was stopped with 90 μL of 0.1M EDTA, and the reaction product was transferred to a “reading” 96-well plate. After washing of the plate, radiolabeled RNA products were detected according to standard procedures with a Trilux Topcount scintillation counter. The compound concentration at which the enzyme-catalyzed rate was reduced by 50% (IC50) was calculated by fitting the data to a non-linear regression (sigmoidal).
SMILES,CC50 at 5 days [1],EC50 [2],IC50 (recombinant RSV complex)
COc1cc(C(=O)NCC(O)(c2cc3c(c(-c4ccc(F)cc4)n2)OCC32CCN2)C(F)(F)F)ccc1OC[C@@H](C)O (stereo partly drawn) [Compound 108],10 to 100 µM,1 to 50 µM,< 1 µM
COc1cc(C(=O)NCC(O)(c2cc3c(c(-c4ccncc4)n2)OCC3(C)N)C(F)(F)F)ccc1OCCO (stereo not drawn) [Compound 26],> 100 µM,1 to 50 µM,< 50 µM
C[C@@]1(N)CNc2c1cc([C@](O)(CNC(=O)c1ccc3c(c1)CC(=O)N3)C(F)(F)F)nc2-c1ccc(F)cc1 [Compound 76],10 to 100 µM,< 1 µM,< 1 µM
COc1cc(C(=O)NC[C@@](O)(c2cc3c(c(-c4ccc(F)cc4)n2)OC[C@@]3(C)N)C(F)(F)F)ccc1-c1nc(C)no1 [Compound 19],10 to 100 µM,< 1 µM,< 1 µM
COc1cc(C(=O)NCC(O)(c2cc(C(C)CCN)cc(-c3ccc(F)cc3)n2)C(F)(F)F)ccc1OCCO (stereo not drawn) [Compound 13],10 to 100 µM,< 1 µM,< 1 µM
CC(C)(N)c1cc(-c2ccc(F)cc2)nc([C@@](O)(CNC(=O)c2ccc(OCCO)c(OC3CC3)c2)C(F)(F)F)c1 [Compound 57],10 to 100 µM,< 1 µM,< 1 µM
"COc1cc(C(=O)NC[C@@](O)(c2cc3c(c(-c4ccc(F)cc4)n2)OC[C@]3(N)C2CC2)C(F)(F)F)ccc1OC[C@@H](C)O (single isomer, unassigned) [Compound 106]",10 to 100 µM,< 1 µM,< 1 µM
COc1cc(C(=O)NCC(O)(c2cc(C3(C)COCCN3)cc(-c3ccc(F)cc3)n2)C(F)(F)F)ccc1OCCO (stereo not drawn) [Compound 119],> 100 µM,< 1 µM,< 1 µM
COc1cc(C(=O)NCC(N)(c2cc(C(C)(C)N)cc(-c3ccc(F)cc3)n2)C(F)(F)F)ccc1OCCO (stereo not drawn) [Compound 40],> 100 µM,< 1 µM,< 1 µM
COc1cc(C(=O)NC[C@@](O)(c2cc3c(c(-c4ccc(F)cc4)n2)OC[C@@]3(C)N)C(F)(F)F)cc(OC)c1CCCO [Compound 65],10 to 100 µM,< 1 µM,< 1 µM
COc1cc(C(=O)NCC(O)(c2nc(-c3ccc(F)cc3)cc3c2OC(C)(N)C3)C(F)(F)F)ccc1OC[C@@H](C)O (stereo partly drawn) [Compound 120],10 to 100 µM,< 1 µM,< 1 µM
COc1cc(C(=O)NCC(O)(c2cc3c(c(-c4ccc(F)cc4)n2)OCC3(C)N)C(F)(F)F)cc2c1NC(=O)NC2 (stereo not drawn) [Compound 43],10 to 100 µM,1 to 50 µM,< 1 µM
COc1cc(C(=O)NC[C@@](O)(c2cc3c(c(-c4ccc(F)cc4)n2)NC[C@@]3(C)N)C(F)(F)F)ccc1OC1CC1 [Compound 127],10 to 100 µM,< 1 µM,< 1 µM
COc1cc(C(=O)NC[C@@](O)(c2cc3c(c(-c4ccc(F)cc4)n2)NC[C@@]3(C)N)C(F)(F)F)cc2cc[nH]c12 [Compound 83],10 to 100 µM,< 1 µM,< 1 µM
